A word on the pEC50: it is −log10 of the EC50, conventionally taken in molar units.

This note sets out measurements from article PMC10307035, “Antiviral activity of singlet oxygen-photogenerating perylene compounds against SARS-CoV-2: Interaction with the viral envelope and photodynamic virion inactivation” (Virus Research, 2023).

What all share (type): cell-based
Test [1] concerns SARS-CoV-2 (Wuhan variant). Kind of test: microbe, parasite or virus in culture. To be noted: for inhibition of SARS-CoV-2 replication in virus-infected cells: 2 and 10 µM, Vero cells.
Test [2] relates to SARS-CoV-2 variants Alpha (B.1.1.7), Beta (B.1.351), Gamma (p.1), Delta (B.1.617.2), and Omicron (B.1.1.529). The following applies: 1 and 10 µM, 48 h, Vero cells.
In test [3] the test system is SARS-CoV-2 (Wuhan variant). Kind of test: Virucidal activity against SARS-CoV-2 (plaque assay). To be noted: 10 µM, 120 min at 37 °C in the dark.
Where [4] appears, read: Severe acute respiratory syndrome coronavirus 2, Vero, 48 h, read-out: App. EC50.
Where [5] appears, read: Severe acute respiratory syndrome coronavirus 2, Vero, read-out: EC50.

pEC50: −log10 of the molar value. Like-named read-outs stand apart in the source and are kept apart here.

On to `CC(C)(C)C(=O)OCn1c(=O)c(C#Cc2ccc3c4cccc5cccc(c6cccc2c63)c54)cn(CC(=O)NCCCCCO)c1=O` [Compound 11], for which the values for the negative-log EC50 (pEC50) in test [1] (setting [4]) and in test [1] (setting [5]) were 5.97 and 6.36, respectively.

As to `O=C(O)c1ccc2c3cccc4cccc(c5cccc1c52)c43` [Compound 20], the negative-log EC50 (pEC50) was less than 5.30 in test [1] (setting [4]) and less than 5.60 in test [1] (setting [5]).

Turning to `O=c1[nH]c(=O)n([C@H]2C[C@H](O)[C@@H](CO)O2)cc1C#Cc1ccc2c3cccc4cccc(c5cccc1c52)c43` [Compound 2, 5-(perylen-3-yl)ethynyl-2′-deoxy-uridine], the pEC50 in test [1] (setting [4]) is 6.07; in test [1] (setting [5]), 6.59; in test [1] (read-out: EC50), 6.59. The “replication of all tested SARS-CoV-2 variants” value in test [2] is reported as “efficiently inhibited”.

Turning to `O=c1[nH]cc(C#Cc2ccc3c4cccc5cccc(c6cccc2c63)c54)c(=O)[nH]1` [Compound 3], the values for the negative logarithm of the EC50 (pEC50) in test [1] (setting [4]) and in test [1] (setting [5]) were less than 5.30 and less than 5.60, respectively.

Consider `CC(C)(C)C(=O)OCn1c(=O)c(C#Cc2ccc3c4cccc5cccc(c6cccc2c63)c54)cn(CC(=O)NCCCO)c1=O` [Compound 10], for which the pEC50 is 5.71 in test [1] (setting [4]) and 6.42 in test [1] (setting [5]).

For the compound `O=C(O)c1ccc(-c2ccc3c4cccc5cccc(c6cccc2c63)c54)s1` [Compound 16], the pEC50 in test [1] (setting [4]) was 5.59; in test [1] (setting [5]), 6.27; in test [1] (read-out: EC50), 6.27.

On to `O=c1[nH]c(=O)n([C@@H]2O[C@H](CO)[C@@H](O)[C@@H]2O)cc1C#Cc1ccc2c3cccc4cccc(c5cccc1c52)c43` [Compound 1, 5-(perylen-3-yl)ethynyl-arabino-uridine], for which the negative logarithm of the EC50 (pEC50) in test [1] (setting [4]) was 5.95; in test [1] (setting [5]), 6.39; in test [1] (read-out: EC50) it was 6.39.

In the case of `CC(C)(C)C(=O)OCn1c(=O)c(C#Cc2ccc3c4cccc5cccc(c6cccc2c63)c54)cn(CC(=O)NC[C@@H](O)C(C)(C)CO)c1=O` [Compound 7], the “inhibition of SARS-CoV-2 replication in virus-infected cells” value in test [1] was “complete inhibition”. Moreover, the pEC50 in test [1] (setting [4]) was 5.93; in test [1] (setting [5]) it was 6.38.

`CCCCNC(=O)Cn1cc(C#Cc2ccc3c4cccc5cccc(c6cccc2c63)c54)c(=O)n(COC(=O)C(C)(C)C)c1=O` [Compound 8]: the values for the pEC50 in test [1] (setting [4]) and in test [1] (setting [5]) were less than 5.30 and roughly 5.70, respectively.

Regarding `CC(=O)Nc1ccc(C#Cc2ccc3c4cccc5cccc(c6cccc2c63)c54)cc1` [Compound 15], the negative-log EC50 (pEC50) was 6.49 in test [1] (setting [4]), 7.20 in test [1] (setting [5]) and 7.20 in test [1] (read-out: EC50).

`O=C(c1ccc(-c2ccc3c4cccc5cccc(c6cccc2c63)c54)s1)N(CCO)CCO` [Compound 18]: the negative-log EC50 (pEC50) in test [1] (setting [4]) is 6.88; in test [1] (setting [5]), 7.72; in test [1] (read-out: EC50), 7.72.

For the compound `CC(C)(C)C(=O)OCn1c(=O)c(C#Cc2ccc3c4cccc5cccc(c6cccc2c63)c54)cn(CC(=O)NCCCCO)c1=O` [Compound 6], the pEC50 was 6.11 in test [1] (setting [4]) and 7.04 in test [1] (setting [5]).

Turning to `CC(C)(C)C(=O)OCn1c(=O)c(C#Cc2ccc3c4cccc5cccc(c6cccc2c63)c54)cn(CC(=O)NCCCCCCO)c1=O` [Compound 12], the negative-log EC50 (pEC50) is less than 5.30 in test [1] (setting [4]), 6.09 in test [1] (setting [5]) and 6.09 in test [1] (read-out: EC50).

For the compound `CC(C)(C)C(=O)OCn1c(=O)c(C#Cc2ccc3c4cccc5cccc(c6cccc2c63)c54)cn(CC(=O)N(CCO)CCO)c1=O` [Compound 13], the “inhibition of SARS-CoV-2 replication in virus-infected cells” value in test [1] is given as “complete inhibition”. In addition, the negative logarithm of the EC50 (pEC50) in test [1] (setting [4]) is 6.21; in test [1] (setting [5]), 6.56. The “replication of all tested SARS-CoV-2 variants” value in test [2] is on record as “efficiently inhibited”.

Take `Cn1cc(C#Cc2ccc3c4cccc5cccc(c6cccc2c63)c54)c(=O)n(C)c1=O` [Compound 4]: the figures for the pEC50 in test [1] (setting [4]), in test [1] (setting [5]) and in test [1] (read-out: EC50) were 5.69, 6.39 and 6.39, respectively.

Regarding `CCCCNC(=O)c1ccc(-c2ccc3c4cccc5cccc(c6cccc2c63)c54)s1` [Compound 19], the pEC50 was 6.33 in test [1] (setting [4]), 7.01 in test [1] (setting [5]) and 7.01 in test [1] (read-out: EC50).

As to `CC(C)(C)C(=O)OCn1c(=O)c(C#Cc2ccc3c4cccc5cccc(c6cccc2c63)c54)cn(CC(=O)NCCO)c1=O` [Compound 9], the negative logarithm of the EC50 (pEC50) in test [1] (setting [4]) is 6.11; in test [1] (setting [5]), 6.86.

With `CN(C)c1ccc(C#Cc2ccc3c4cccc5cccc(c6cccc2c63)c54)cc1` [Compound 14], the pEC50 in test [1] (setting [4]) is less than 5.30; in test [1] (setting [5]), less than 5.60.

On to `CC(C)(C)C(=O)OCn1c(=O)c(C#Cc2ccc3c4cccc5cccc(c6cccc2c63)c54)cn(CC(=O)O)c1=O` [Compound 5], for which the pEC50 in test [1] (setting [4]) was less than 5.30; in test [1] (setting [5]), roughly 5.70; in test [1] (read-out: EC50), 5.69.

`O=C(NCCCCO)c1ccc(-c2ccc3c4cccc5cccc(c6cccc2c63)c54)s1` [Compound 17]: the pEC50 in test [1] (setting [4]) and in test [1] (setting [5]) was greater than 8.40 in each case. Moreover, in test [2], the “replication of all tested SARS-CoV-2 variants” value is given as “efficiently inhibited”. The “virucidal effect against SARS-CoV-2 (ranking)” value in test [3] is “strongest virucidal effect”.
